Experimental findings from patent US9006487B2, “Amine-containing lipids and uses thereof” (Massachusetts Institute of Technology, priority 2005, dated 2015) are described below.

SMILES strings stand for the structures.

Test [1] relates to cos-7 cells. The experiment in a line: DNA transfection: luciferase expression relative to Lipofectamine 2000. The following applies: for luciferase expression (second part of table, values relative to LIPO2000): 300 ng of DNA per well; for Luciferase expression as a percentage of that achieved using Lipofectamine 2000: 300 ng Luciferase DNA per well, luciferase assay after 48 hours. The test is classed as cell-based. The gist of the method: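 cos-7 cells were transfected with 300 ng/well luciferase DNA complexed with lipid at ratios from 2.5 to 25 w/w. Bright-Glo luminescence was read after 48 hours and converted to ng luciferase by standard curve. Data are percent of the Lipofectamine 2000 control (2.5 w/w).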

Test [2] in a line: DNA delivery: raw luciferase expression (relative light units) of best-transfecting lipids. The settings on record: 300 ng of DNA per well. The test is classed as cell-based. How it is done: Raw values for luciferase expression (relative lights units) of best-transfecting lipids at lipid/DNA (w/w) ratios listed. 300 ng of DNA was added per well.

`CCCCCCCCCCCCNC(=O)CCN(CCC(=O)NCCCCCCCCCCCC)CC(C)O` (stereo not shown) [ND22]: the “luciferase expression (second part of table, values relative to LIPO2000)” value in test [1] (lipid/DNA 2.5 w/w) is 29.2; in test [1] (lipid/DNA 5 w/w) it was 61.7; in test [1] (lipid/DNA 10 w/w), 48.0; in test [1] (lipid/DNA 15 w/w), 4.4; in test [1] (lipid/DNA 20 w/w), 0.4; in test [1] (lipid/DNA 25 w/w), 0.2. For the same compound, the “Raw values for luciferase expression” value in test [2] (lipid/DNA 2.5 w/w) was 721270 relative lights units; in test [2] (lipid/DNA 5 w/w) it was 1083569 relative lights units.
`CCCCCCCCCCCCCCNC(=O)CCN(C)CCN(C)CCC(=O)NCCCCCCCCCCCCCC` [NF60]: the “luciferase expression (second part of table, values relative to LIPO2000)” value is reported as 6.8 in test [1] (lipid/DNA 2.5 w/w), 21.9 in test [1] (lipid/DNA 5 w/w), 28.9 in test [1] (lipid/DNA 10 w/w) and 49.1 in test [1] (lipid/DNA 15 w/w). The “Raw values for luciferase expression” value in test [2] (lipid/DNA 10 w/w) amounted to 2401570 relative lights units; in test [2] (lipid/DNA 15 w/w), 3739668 relative lights units.
`CCCCCCCCCCCCCCCNC(=O)CCN(CCCN(CCO)CCO)CCC(=O)NCCCCCCCCCCCCCCC` [NG87]: the “Raw values for luciferase expression” value in test [2] (lipid/DNA 2.5 w/w) was found to be 823764 relative lights units; in test [2] (lipid/DNA 5 w/w), 1005875 relative lights units.
In the same order, the values of `CCCCCCCCCCCCCCNC(=O)CCN(CCCN1CCOCC1)CCC(=O)NCCCCCCCCCCCCCC` [NF91] are 1993690 relative lights units and 1670695 relative lights units.
The like results for `CCCCCCCCCCCCCCNC(=O)CCN(CCC(=O)NCCCCCCCCCCCCCC)C(CO)CO` [NF25] were, in that order, 2473702 relative lights units and 1366194 relative lights units.
In the same order, the values of `CCCCCCCCCCCCCCCCNC(=O)CCN(CCN(CCC(=O)NCCCCCCCCCCCCCCCC)C(C)C)C(C)C` [NP62] are 1443678 relative lights units and 33188 relative lights units.
Consider `CCCCCCCCCCCCCCNC(=O)CCN(CCCOC)CCC(=O)NCCCCCCCCCCCCCC` [NF1], for which the “Raw values for luciferase expression” value in test [2] (lipid/DNA 2.5 w/w) was determined as 778473 relative lights units; in test [2] (lipid/DNA 5 w/w) it was 227587 relative lights units.
The like results for `CCCCCCCCCCCCCCNC(=O)CCN(CCOC)CCC(=O)NCCCCCCCCCCCCCC` [NF10] were, in that order, 1192178 relative lights units and 838283 relative lights units.
The like results for `CCCCCCCCCCCCNC(=O)CCN(C)CCCN(CCC(=O)NCCCCCCCCCCCC)CCC(=O)NCCCCCCCCCCCC` [ND96] were, in that order, 2910700 relative lights units and 42837 relative lights units.
For `CCCCCCCCCCCCCCCCNC(=O)CCN(CCCN(CCO)CCO)CCC(=O)NCCCCCCCCCCCCCCCC` [NP87], the “Raw values for luciferase expression” value in test [2] (lipid/DNA 10 w/w) amounted to 1207376 relative lights units; in test [2] (lipid/DNA 15 w/w), 1192838 relative lights units.
On to `CCCCCCCCCCCCCCCCNC(=O)CCN(CCC(=O)NCCCCCCCCCCCCCCCC)CCN(CCC(=O)NCCCCCCCCCCCCCCCC)CCC(=O)NCCCCCCCCCCCCCCCC` [NP99], for which the “Raw values for luciferase expression” value in test [2] (lipid/DNA 2.5 w/w) is 3202948 relative lights units; in test [2] (lipid/DNA 5 w/w), 9767 relative lights units.
As for `CCCCCCCCCCCCNC(=O)CCN(CCO)CCN(CCC(=O)NCCCCCCCCCCCC)CCC(=O)NCCCCCCCCCCCC` [ND109], the figures for the “Raw values for luciferase expression” value in test [2] (lipid/DNA 2.5 w/w) and in test [2] (lipid/DNA 5 w/w) were 2197484 relative lights units and 2087995 relative lights units, respectively.
The like results for `CCCCCCCCCCCCCCCNC(=O)CCN(CC)CCN(CC)CCC(=O)NCCCCCCCCCCCCCCC` [NG61] were, in that order, 1452027 relative lights units and 765795 relative lights units.
With `CCCCCCCCCCCCCCCNC(=O)CCN(C)CCN(CCC(=O)NCCCCCCCCCCCCCCC)CCC(=O)NCCCCCCCCCCCCCCC` [NG95], the “Raw values for luciferase expression” value in test [2] (lipid/DNA 10 w/w) is listed as 834849 relative lights units; in test [2] (lipid/DNA 15 w/w) it was 1208120 relative lights units.
In the case of `CCCCCCCCCCCCNC(=O)CCN(CCC(=O)NCCCCCCCCCCCC)CCc1c[nH]cn1` [ND94], the “Raw values for luciferase expression” value in test [2] (lipid/DNA 2.5 w/w) worked out at 774425 relative lights units; in test [2] (lipid/DNA 5 w/w), 1382667 relative lights units.
As for `CCCCCCCCCCCCCCCCNC(=O)CCN(CCC(=O)NCCCCCCCCCCCCCCCC)CCN(CCO)CCO` [NP86], the “Raw values for luciferase expression” value in test [2] (lipid/DNA 10 w/w) is listed as 595340 relative lights units; in test [2] (lipid/DNA 15 w/w) it was 1323915 relative lights units.
On to `CCCCCCCCCCCCCCCCNC(=O)CCN(C)CCCN(C)CCC(=O)NCCCCCCCCCCCCCCCC` [NP63], for which the “Raw values for luciferase expression” value in test [2] (lipid/DNA 2.5 w/w) was determined as 1180418 relative lights units; in test [2] (lipid/DNA 5 w/w) it was 1543275 relative lights units; in test [2] (lipid/DNA 10 w/w), 1388102 relative lights units; in test [2] (lipid/DNA 15 w/w), 798342 relative lights units.
As for `CCCCCCCCCCCCCCNC(=O)CCN(CCCO)CCC(=O)NCCCCCCCCCCCCCC` [NF20], the “Raw values for luciferase expression” value stood at 1814886 relative lights units in test [2] (lipid/DNA 2.5 w/w) and 1801431 relative lights units in test [2] (lipid/DNA 5 w/w).
In the same order, the values of `CCCCCCCCCCCCCCCNC(=O)CCN(CCC(=O)NCCCCCCCCCCCCCCC)CCC1CCCN1C` (stereo not shown) [NG77] are 972002 relative lights units and 1184771 relative lights units.
With `CCCCCCCCCCCCCCNC(=O)CCN(C)CCCN(C)CCC(=O)NCCCCCCCCCCCCCC` [NF63], the “Raw values for luciferase expression” value in test [2] (lipid/DNA 2.5 w/w) was determined as 1141469 relative lights units; in test [2] (lipid/DNA 5 w/w), 865897 relative lights units; in test [2] (lipid/DNA 10 w/w) it was 3031718 relative lights units; in test [2] (lipid/DNA 15 w/w), 1138429 relative lights units.
`CCCCCCCCCCCCCCCNC(=O)CCN(CCC(=O)NCCCCCCCCCCCCCCC)CCN(CCO)CCO` [NG86]: the “Raw values for luciferase expression” value in test [2] (lipid/DNA 2.5 w/w) was determined as 1357355 relative lights units; in test [2] (lipid/DNA 5 w/w), 1521687 relative lights units; in test [2] (lipid/DNA 10 w/w), 1513703 relative lights units; in test [2] (lipid/DNA 15 w/w), 1223360 relative lights units.
Regarding `CCCCCCCCCCCCCCOC(=O)CCN(CCC(=O)OCCCCCCCCCCCCCC)CCN1CCCC1` [LF76], the “Luciferase expression as a percentage of that achieved using Lipofectamine 2000” value (“Luciferase expression as a percentage” below) is listed as 1.7% in test [1] (lipid/DNA 2.5 w/w); 5.6% in test [1] (lipid/DNA 5 w/w); 9.8% in test [1] (lipid/DNA 10 w/w); 24.3% in test [1] (lipid/DNA 15 w/w); 22.2% in test [1] (lipid/DNA 20 w/w); 19.5% in test [1] (lipid/DNA 25 w/w).
As for `CCCCCCCCCCOC(=O)CCN(CCC(=O)OCCCCCCCCCC)CCN1CCCC1` [LB76], the “Luciferase expression as a percentage” value in test [1] (lipid/DNA 2.5 w/w), in test [1] (lipid/DNA 5 w/w), in test [1] (lipid/DNA 10 w/w), in test [1] (lipid/DNA 15 w/w), in test [1] (lipid/DNA 20 w/w) and in test [1] (lipid/DNA 25 w/w) was 0.1% in each case.
Turning to `CCCCCCCCCCCCCCCOC(=O)CCN(CCC(=O)OCCCCCCCCCCCCCCC)CCN1CCCCC1` [LG82], the “Luciferase expression as a percentage” value turned out to be 0.2% in test [1] (lipid/DNA 2.5 w/w); 0.2% in test [1] (lipid/DNA 5 w/w); 0.6% in test [1] (lipid/DNA 10 w/w); 0.8% in test [1] (lipid/DNA 15 w/w); 0.5% in test [1] (lipid/DNA 20 w/w); 1.2% in test [1] (lipid/DNA 25 w/w).
On to `CCCCCCCCCCCCCCCCCCOC(=O)CCN(CCCOC)CCC(=O)OCCCCCCCCCCCCCCCCCC` [LH1], for which the “Luciferase expression as a percentage” value in test [1] (lipid/DNA 2.5 w/w), in test [1] (lipid/DNA 5 w/w), in test [1] (lipid/DNA 10 w/w), in test [1] (lipid/DNA 15 w/w), in test [1] (lipid/DNA 20 w/w) and in test [1] (lipid/DNA 25 w/w) was 0.0% throughout.
As to `CCCCCCCCCCCCCCOC(=O)CCN(CCC(=O)OCCCCCCCCCCCCCC)C(C)(CO)CO` [LF26], the “Luciferase expression as a percentage” value is reported as 0.1% in test [1] (lipid/DNA 2.5 w/w); 0.2% in test [1] (lipid/DNA 5 w/w); 0.7% in test [1] (lipid/DNA 10 w/w); 0.1% in test [1] (lipid/DNA 15 w/w); 0.1% in test [1] (lipid/DNA 20 w/w); 0.3% in test [1] (lipid/DNA 25 w/w).
